In the experiment the target is T1, Recombinant full length human OGA enzyme (Homo sapiens, UniProt O60502).
T1 construct: Recombinant full length human OGA enzyme was purchased from Origene; purchased Origene
T1 sequence (O60502 1-916): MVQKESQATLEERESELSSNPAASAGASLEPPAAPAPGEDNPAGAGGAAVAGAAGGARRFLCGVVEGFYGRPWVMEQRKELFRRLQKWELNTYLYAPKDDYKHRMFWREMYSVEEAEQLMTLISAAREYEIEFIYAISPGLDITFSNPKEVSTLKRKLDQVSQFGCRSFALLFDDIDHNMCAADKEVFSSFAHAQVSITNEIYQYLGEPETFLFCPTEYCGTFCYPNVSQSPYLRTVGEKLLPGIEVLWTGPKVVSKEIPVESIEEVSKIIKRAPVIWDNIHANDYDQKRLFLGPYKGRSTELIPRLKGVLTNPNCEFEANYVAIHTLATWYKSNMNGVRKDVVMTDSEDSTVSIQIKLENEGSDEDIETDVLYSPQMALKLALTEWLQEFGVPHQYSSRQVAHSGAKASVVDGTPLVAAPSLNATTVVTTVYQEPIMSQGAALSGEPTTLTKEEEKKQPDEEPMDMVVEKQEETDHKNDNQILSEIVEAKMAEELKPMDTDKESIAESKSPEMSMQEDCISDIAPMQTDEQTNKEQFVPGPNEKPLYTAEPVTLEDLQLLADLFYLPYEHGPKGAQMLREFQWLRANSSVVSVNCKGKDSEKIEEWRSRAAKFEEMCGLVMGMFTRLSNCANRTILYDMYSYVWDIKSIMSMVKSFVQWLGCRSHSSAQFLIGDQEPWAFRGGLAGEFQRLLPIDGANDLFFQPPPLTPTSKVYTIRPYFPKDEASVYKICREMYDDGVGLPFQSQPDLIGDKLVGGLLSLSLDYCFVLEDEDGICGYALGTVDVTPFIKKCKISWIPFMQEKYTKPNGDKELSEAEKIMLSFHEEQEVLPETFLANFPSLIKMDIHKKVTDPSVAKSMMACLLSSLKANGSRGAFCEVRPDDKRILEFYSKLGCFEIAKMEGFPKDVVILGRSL
The experiment can be described thus: OGA enzyme inhibition biochemical assay. The settings on record: 1 nM OGA, 100 μM 4-MUGlcNAc (Km), pH 6.4, 90 minutes at room temperature, 10-point dose-response from 20 μM. On the procedure: N-(5-(((2S,4R)-4-([1,2,4]triazolo[4,3-a]pyrazin-3-yloxy)-2-methylpyrrolidin-1-yl)methyl)-4-fluorothiazol-2-yl)acetamide: The title compound was prepared in an analogous manner as Example 172 from 3-bromo-[1,2,4]triazolo[4,3-a]pyrazine. LCMS (ESI): [M+H] 392. ^1H NMR (600 MHz, CHLOROFORM-d) δ 10.75 (br s, 1H), 9.04 (s, 1H), 9.03 (s, 1H), 7.24 (s, 1H), 4.99-5.06 (m, 1H), 4.01 (d, J=14.49 Hz, 1H), 3.64 (d, J=14.67 Hz, 1H), 3.40 (d, J=11.55 Hz, 1H), 2.75 (dd, J=5.78, 11.46 Hz, 1H), 2.61-2.72 (m, 2H), 2.32 (s, 4H), 1.84-1.92 (m, 1H), 1.30 (d, J=5.87 Hz, 4H). ^19F NMR (565 MHz, CHLOROFORM-d) 6-115.92 (br s, 1F). OGA Enzyme Inhibition Biochemical Assay
Recombinant full length human OGA enzyme was purchased from Origene. 4-MUGlCNAc substrate was purchased from Sigma. All other reagents were purchased from Sigma or Fisher. Assay buffer consists of the McIlvaine buffer system, pH 6.4 (0.2M Na2HPO4 mixed with 0.1M citric acid) and 0.01% BSA. Reactions consist of 1 nM OGA, 100 μM 4-MUGlcNAc (Km), and compound in a final volume of 10 μl. Reactions were incubated for 90 minutes at room temperature and quenched with 40 μl of 3M glycine, pH 10 and read on a Perkin Elmer Envision plate reader (Ex: 355 nm/Em: 460 nm). Compounds were tested with a 10-point dose-response starting from 20 μM with a 4-fold dilution. Data, as presented in Table 1 below, was fit using GraphPad Prism using a 4-parameter fit with variable slope.
In general, IC50 refers to the concentration that inhibits the measured activity by half. Regarding `CC(=O)Nc1nc(F)c(CN2C[C@H](Oc3ccn4nccc4n3)C[C@@H]2C)s1` [Example 62, N-(4-fluoro-5-(((2S,4R)-2-methyl-4-(pyrazolo[1,5-a]pyrimidin-5-yloxy)pyrrolidin-1-yl)methyl)thiazol-2-yl)acetamide], the IC50 was below 1 nM.
Then `CC(=O)Nc1ncc(CN2C[C@H](Oc3ccc4ccc(F)cc4n3)C[C@@H]2C)s1` [Example 6, N-(5-(((2S,4R)-4-((7-fluoroquinolin-2-yl)oxy)-2-methylpyrrolidin-1-yl)methyl)thiazol-2-yl)acetamide], with below 1 nM; and `CC(=O)Nc1nc(F)c(CN2C[C@H](Oc3cn4cccnc4n3)C[C@@H]2C)s1` [Example 92, N-(4-fluoro-5-(((2S,4R)-4-(imidazo[1,2-a]pyrimidin-2-yloxy)-2-methylpyrrolidin-1-yl)methyl)thiazol-2-yl)acetamide], with below 1 nM; and `CC(=O)Nc1nc(F)c(CN2C[C@H](Oc3ncnc4c3cnn4C)C[C@@H]2C)s1` [Example 143, N-(4-fluoro-5-(((2S,4R)-2-methyl-4-((1-methyl-1H-pyrazolo[3,4-d]pyrimidin-4-yl)oxy)pyrrolidin-1-yl)methyl)thiazol-2-yl)acetamide], with below 1 nM.
Then `COc1cc2ccnc(Cl)c2cc1O[C@@H]1C[C@H](C)N(Cc2sc(NC(C)=O)nc2F)C1` [Example 132, N-(5-(((2S,4R)-4-((1-chloro-6-methoxyisoquinolin-7-yl)oxy)-2-methylpyrrolidin-1-yl)methyl)-4-fluorothiazol-2-yl)acetamide], with below 1 nM; and `CC(=O)Nc1ncc(CN2C[C@H](Oc3ncnc4sc(C(F)F)nc34)C[C@@H]2C)s1` [Example 36], with 780 nM.
For the molecule `CC(=O)Nc1ncc(CN2C[C@H](Oc3cc(C(F)(F)F)c4cn(C)nc4n3)C[C@@H]2C)s1` [Example 12, N-(5-(((2S,4R)-2-methyl-4-((2-methyl-4-(trifluoromethyl)-2H-pyrazolo[3,4-b]pyridin-6-yl)oxy)pyrrolidin-1-yl)methyl)thiazol-2-yl)acetamide], the IC50 was below 1 nM.
With `COc1cc2c(O[C@@H]3C[C@H](C)N(Cc4sc(NC(C)=O)nc4F)C3)ncnc2cc1F` [Example 125, N-(4-fluoro-5-(((2S,4R)-4-((7-fluoro-6-methoxyquinazolin-4-yl)oxy)-2-methylpyrrolidin-1-yl)methyl)thiazol-2-yl)acetamide], the IC50 is 1.8 nM.
Then `CC(=O)Nc1nc(F)c(CN2C[C@H](Oc3ccc4nn(C)cc4c3)C[C@@H]2C)s1` [Example 50, N-(4-fluoro-5-(((2S,4R)-2-methyl-4-((2-methyl-2H-indazol-5-yl)oxy)pyrrolidin-1-yl)methyl)thiazol-2-yl)acetamide], with below 1 nM.
Then `CC(=O)Nc1ncc(CN2C[C@H](Oc3ncnc4ccoc34)C[C@@H]2C)s1` [Example 71, N-(5-(((2S,4R)-4-(furo[3,2-d]pyrimidin-4-yloxy)-2-methylpyrrolidin-1-yl)methyl)thiazol-2-yl)acetamide], with below 1 nM; and `CC(=O)Nc1ncc(CN2C[C@H](Oc3cnc4cc(F)c(F)cc4n3)C[C@@H]2C)s1` [Example 9, N-(5-(((2S,4R)-4-((6,7-difluoroquinoxalin-2-yl)oxy)-2-methylpyrrolidin-1-yl)methyl)thiazol-2-yl)acetamide], with below 1 nM; and `CC(=O)Nc1ncc(CN2C[C@H](Oc3ncnc4cc(F)c(F)cc34)C[C@@H]2C)s1` [Example 35, N-(5-(((2S,4R)-4-((6,7-difluoroquinazolin-4-yl)oxy)-2-methylpyrrolidin-1-yl)methyl)thiazol-2-yl)acetamide], with 110 nM.
On to `CC(=O)Nc1ncc(CN2C[C@H](Oc3ncnc4occc34)C[C@@H]2C)s1` [Example 73, N-(5-(((2S,4R)-4-(furo[2,3-d]pyrimidin-4-yloxy)-2-methylpyrrolidin-1-yl)methyl)thiazol-2-yl)acetamide], for which the IC50 was below 1 nM.
Turning to `CC(=O)Nc1nc(F)c(CN2C[C@H](Oc3ccc4ccn(C)c4n3)C[C@@H]2C)s1` [Example 163, N-(4-fluoro-5-(((2S,4R)-2-methyl-4-((1-methyl-1H-pyrrolo[2,3-b]pyridin-6-yl)oxy)pyrrolidin-1-yl)methyl)thiazol-2-yl)acetamide], the IC50 is below 1 nM.
Then `CC(=O)Nc1ncc(CN2C[C@H](Oc3cc4nc(C)cn4cn3)C[C@@H]2C)s1` [Example 40, N-(5-(((2S,4R)-2-methyl-4-((2-methylimidazo[1,2-c]pyrimidin-7-yl)oxy)pyrrolidin-1-yl)methyl)thiazol-2-yl)acetamide], with below 1 nM; and `CC(=O)Nc1ncc(CN2C[C@H](Oc3c(Cl)ccn4ccnc34)C[C@@H]2C)s1` [Example 38, N-(5-(((2S,4R)-4-((7-chloroimidazo[1,2-a]pyridin-8-yl)oxy)-2-methylpyrrolidin-1-yl)methyl)thiazol-2-yl)acetamide], with below 1 nM.
Then `CC(=O)Nc1ncc(CN2C[C@H](Oc3nccn4nc(C(F)(F)F)cc34)C[C@@H]2C)s1` [Example 28, N-(5-(((2S,4R)-2-methyl-4-((2-(trifluoromethyl)pyrazolo[1,5-a]pyrazin-4-yl)oxy)pyrrolidin-1-yl)methyl)thiazol-2-yl)acetamide], with 5.4 nM; and `CC(=O)Nc1ncc(CN2C[C@H](Oc3ccnc4ccc(C)cc34)C[C@@H]2C)s1` [Example 23, N-(5-(((2S,4R)-2-methyl-4-((6-methylquinolin-4-yl)oxy)pyrrolidin-1-yl)methyl)thiazol-2-yl)acetamide], with 2.4 nM; and `CC(=O)Nc1ncc(CN2C[C@H](Oc3ncnc4cc(OC(F)F)ccc34)C[C@@H]2C)s1` [Example 14, N-(5-(((2S,4R)-4-((7-(difluoromethoxy)quinazolin-4-yl)oxy)-2-methylpyrrolidin-1-yl)methyl)thiazol-2-yl)acetamide], with below 1 nM.
Then `CC(=O)Nc1ncc(CN2C[C@H](Oc3ccnc4nc(C(F)(F)F)nn34)C[C@@H]2C)s1` [Example 34, N-(5-(((2S,4R)-2-methyl-4-((2-(trifluoromethyl)-[1,2,4]triazolo[1,5-a]pyrimidin-7-yl)oxy)pyrrolidin-1-yl)methyl)thiazol-2-yl)acetamide], with 22 nM.
In the case of `CC(=O)Nc1nc(F)c(CN2C[C@H](Oc3ncc4cnn(C)c4n3)C[C@@H]2C)s1` [Example 142, N-(4-fluoro-5-(((2S,4R)-2-methyl-4-((1-methyl-1H-pyrazolo[3,4-d]pyrimidin-6-yl)oxy)pyrrolidin-1-yl)methyl)thiazol-2-yl)acetamide], the IC50 is below 1 nM.
Then `CC(=O)Nc1ncc(CN2C[C@H](Oc3ccn4nccc4n3)C[C@@H]2C)s1` [Example 61, N-(5-(((2S,4R)-2-methyl-4-(pyrazolo[1,5-a]pyrimidin-5-yloxy)pyrrolidin-1-yl)methyl)thiazol-2-yl)acetamide], with below 1 nM; and `CC(=O)Nc1nc(F)c(CN2C[C@H](Oc3ccnc4ccnn34)C[C@@H]2C)s1` [Example 104, N-(4-fluoro-5-(((2S,4R)-2-methyl-4-(pyrazolo[1,5-a]pyrimidin-7-yloxy)pyrrolidin-1-yl)methyl)thiazol-2-yl)acetamide], with 3.8 nM; and `CC(=O)Nc1ncc(CN2C[C@H](Oc3ccn4nccc4c3)C[C@@H]2C)s1` [Example 59, N-(5-(((2S,4R)-2-methyl-4-(pyrazolo[1,5-a]pyridin-5-yloxy)pyrrolidin-1-yl)methyl)thiazol-2-yl)acetamide], with below 1 nM.
